IC50 data for 17 molecules are collected here from patent publication US12630530B2, “FGFR inhibitor compound and use thereof” (HENAN MEDINNO PHARMACEUTICAL TECHNOLOGY CO., LTD., priority 2020, dated 2026).

Common to all, as to assay type: biochemical
Conditions in all cases: Table 3; same method as Assay I, different experimental operator

One experiment addresses T1, VEGFR2 (Homo sapiens, UniProt P35968).
T1 construct: purchased Carna 08-191
The experiment can be described thus: Assay III: kinase inhibition (method of Assay I, different operator), VEGFR2. How it is done:
(§1) 1×Kinase reaction buffer was formulated with 1×volume of 5× kinase reaction buffer and 4×volume of water; 5 mM MgCl2; and 1 mM DTT.
(§2) 2.3 Screening of Compounds: • 1. Diluting a compound 4-fold in a dilution plate with DMSO, with a starting compound concentration of 2 mM (4 mM for Nentedanib). • 2. Diluting the compound 40-fold into 1× kinase reaction buffer and shaking it on a shaker for 20 minutes. • 3. Formulating 2×FGFR1 V561M/FGFR2 V564F/FGFR3 K650E/VEGFR2 with 1× of enzyme reaction buffer. • 4. Adding 2 μl FGFR1 V561M/FGFR2 V564F/FGFR3 K650E/VEGFR2 kinase (formulated in step 3) to each well of the reaction plate. • 5. Adding 1 μl of the compound diluted in buffer to each well, sealing the plate with a sealing membrane and centrifuging the plate at 1000 g for 30 seconds and leaving it at room temperature for 10 minutes. • 6. Formulating 2.5×TK-substrate-biotin and ATP mixture with 1× enzyme reaction buffer and adding 2 μl of K-substrate-biotin/ATP mixture to the reaction plate. • 7. Sealing the plate with a sealing membrane and centrifuging the plate at 1000 g for 30 seconds and allowing it to react at room temperature for 50 minutes. • 8. Formulating 4×Sa-XL 665 (250 nM) with HTRF assay buffer. • 9. Adding 5 μl Sa-XL 665 and 5 μl TK-Antibody-Cryptate to each well, centrifuging it at 1000 g for 30 seconds, and allowing it to react for 1 hour at room temperature. • 10. Reading fluorescence signals at 615 nm (Cryptate) and 665 nm (XL665) with Biotek. 3. Data Analysis
(§3) 3.1 Calculation of the ratio for each well: the ratio was calculated as 665/615 nm.
(§4) 3.3 Calculation of IC50 and plotting of inhibition curves for the compounds.
The IC50 (half inhibition concentration) of a compound was obtained using the following non-linear fitting equation, wherein data analysis was performed using Graphpad 6.0 software. Y=Bottom+(Top−Bottom)/(1+10^((Log IC50−X)*Hill Slope)) • X: log value of compound concentration; and Y: inhibition rate (% inh) 3.4 Validation of Results
(§5) Data were exported from Envision and analyzed manually. The ratios were converted to inhibition rates and IC50 was calculated by Prism GraphPad 6.0 from the inhibition rates. IC50 was calculated again by the ratios to verify accuracy of the results.
(§6) Assay III: Determination of Inhibitory Activity Against FGFR Mutants

A further experiment has as its target T2, FGFR3 V555M (Homo sapiens, UniProt P22607, V555M).
T2 construct: purchased Signalchem F06-12GG
The experiment can be described thus: Assay III: inhibitory activity against FGFR mutants (method of Assay I, different operator). Here is the method: as §1
as §2, with “Formulating 2×FGFR1 V561M/FGFR2 V564F/FGFR3 K650E/VEGFR2 with 1× of enzyme reaction buffer. • 4. Adding 2 μl FGFR1 V561M/FGFR2 V564F/FGFR3 K650E/VEGFR2 kinase (formulated in step 3) to each well of the reaction plate. • 5.” left out
as §3, §4
(§7) The IC50 (half inhibition concentration) of a compound was obtained using the following non-linear fitting equation, wherein data analysis was performed using Graphpad 6.0 software.
as §5, §6

In the next experiment the target is T3, FGFR1 V561M (Homo sapiens, UniProt P11362, V561M).
T3 construct: purchased Signalchem F04-13G
T3 sequence (P11362 22-822 V561M): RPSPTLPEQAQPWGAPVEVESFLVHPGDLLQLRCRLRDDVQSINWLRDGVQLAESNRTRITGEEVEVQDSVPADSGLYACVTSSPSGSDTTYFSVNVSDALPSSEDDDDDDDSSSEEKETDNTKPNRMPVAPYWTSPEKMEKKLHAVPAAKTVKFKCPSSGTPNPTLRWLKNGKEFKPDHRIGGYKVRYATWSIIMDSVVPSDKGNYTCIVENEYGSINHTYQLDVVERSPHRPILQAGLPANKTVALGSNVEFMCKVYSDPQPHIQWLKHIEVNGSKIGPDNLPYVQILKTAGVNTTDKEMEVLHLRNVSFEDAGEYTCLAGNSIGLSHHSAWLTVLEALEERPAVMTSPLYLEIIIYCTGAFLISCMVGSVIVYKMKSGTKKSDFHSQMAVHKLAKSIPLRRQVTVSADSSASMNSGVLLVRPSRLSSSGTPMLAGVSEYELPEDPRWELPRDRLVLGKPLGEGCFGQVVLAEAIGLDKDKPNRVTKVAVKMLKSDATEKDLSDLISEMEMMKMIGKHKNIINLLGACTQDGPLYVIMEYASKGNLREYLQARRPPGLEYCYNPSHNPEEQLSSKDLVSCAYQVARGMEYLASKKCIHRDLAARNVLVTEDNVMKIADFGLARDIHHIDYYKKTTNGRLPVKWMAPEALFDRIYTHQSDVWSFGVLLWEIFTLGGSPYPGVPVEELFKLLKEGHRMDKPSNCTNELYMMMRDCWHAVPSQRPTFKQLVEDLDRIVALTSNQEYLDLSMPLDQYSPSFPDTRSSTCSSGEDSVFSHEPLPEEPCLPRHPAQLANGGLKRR
The description is as above. How it is done: as §1
as §2, with “Formulating 2×FGFR1 V561M/FGFR2 V564F/FGFR3 K650E/VEGFR2 with 1× of enzyme reaction buffer. • 4. Adding 2 μl FGFR1 V561M/FGFR2 V564F/FGFR3 K650E/VEGFR2 kinase (formulated in step 3) to each well of the reaction plate. • 5.” left out
as §3, §4, §7, §5, §6

Another experiment has as its target T4, FGFR2 V564F (Homo sapiens, UniProt P21802, V564F).
T4 construct: purchased Signalchem F05-12FG
The experiment is described as above. Here is the method:
as §1
as §2, with “Formulating 2×FGFR1 V561M/FGFR2 V564F/FGFR3 K650E/VEGFR2 with 1× of enzyme reaction buffer. • 4. Adding 2 μl FGFR1 V561M/FGFR2 V564F/FGFR3 K650E/VEGFR2 kinase (formulated in step 3) to each well of the reaction plate. • 5.” left out
as §3, §4, §7, §5, §6

T4 sequence (P21802 22-821 V564F): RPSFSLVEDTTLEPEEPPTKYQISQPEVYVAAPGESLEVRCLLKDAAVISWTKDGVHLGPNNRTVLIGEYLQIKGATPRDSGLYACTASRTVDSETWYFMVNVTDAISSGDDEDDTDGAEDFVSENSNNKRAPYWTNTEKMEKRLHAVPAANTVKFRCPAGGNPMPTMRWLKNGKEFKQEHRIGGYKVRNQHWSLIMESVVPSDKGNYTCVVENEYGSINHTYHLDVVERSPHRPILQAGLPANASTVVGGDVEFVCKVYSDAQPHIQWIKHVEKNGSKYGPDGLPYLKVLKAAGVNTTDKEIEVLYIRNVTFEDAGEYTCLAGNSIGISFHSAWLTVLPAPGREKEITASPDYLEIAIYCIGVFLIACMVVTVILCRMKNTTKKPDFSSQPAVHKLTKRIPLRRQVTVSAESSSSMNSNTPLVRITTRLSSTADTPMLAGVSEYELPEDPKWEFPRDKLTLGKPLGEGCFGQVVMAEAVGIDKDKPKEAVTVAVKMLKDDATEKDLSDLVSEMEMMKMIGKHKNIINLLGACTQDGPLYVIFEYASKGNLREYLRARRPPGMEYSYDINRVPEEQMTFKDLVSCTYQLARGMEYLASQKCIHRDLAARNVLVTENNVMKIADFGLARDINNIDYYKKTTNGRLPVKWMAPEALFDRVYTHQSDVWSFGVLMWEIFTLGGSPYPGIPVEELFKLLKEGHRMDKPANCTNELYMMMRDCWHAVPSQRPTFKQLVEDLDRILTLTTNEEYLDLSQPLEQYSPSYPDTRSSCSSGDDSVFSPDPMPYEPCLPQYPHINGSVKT
T1 sequence (P35968 20-1356): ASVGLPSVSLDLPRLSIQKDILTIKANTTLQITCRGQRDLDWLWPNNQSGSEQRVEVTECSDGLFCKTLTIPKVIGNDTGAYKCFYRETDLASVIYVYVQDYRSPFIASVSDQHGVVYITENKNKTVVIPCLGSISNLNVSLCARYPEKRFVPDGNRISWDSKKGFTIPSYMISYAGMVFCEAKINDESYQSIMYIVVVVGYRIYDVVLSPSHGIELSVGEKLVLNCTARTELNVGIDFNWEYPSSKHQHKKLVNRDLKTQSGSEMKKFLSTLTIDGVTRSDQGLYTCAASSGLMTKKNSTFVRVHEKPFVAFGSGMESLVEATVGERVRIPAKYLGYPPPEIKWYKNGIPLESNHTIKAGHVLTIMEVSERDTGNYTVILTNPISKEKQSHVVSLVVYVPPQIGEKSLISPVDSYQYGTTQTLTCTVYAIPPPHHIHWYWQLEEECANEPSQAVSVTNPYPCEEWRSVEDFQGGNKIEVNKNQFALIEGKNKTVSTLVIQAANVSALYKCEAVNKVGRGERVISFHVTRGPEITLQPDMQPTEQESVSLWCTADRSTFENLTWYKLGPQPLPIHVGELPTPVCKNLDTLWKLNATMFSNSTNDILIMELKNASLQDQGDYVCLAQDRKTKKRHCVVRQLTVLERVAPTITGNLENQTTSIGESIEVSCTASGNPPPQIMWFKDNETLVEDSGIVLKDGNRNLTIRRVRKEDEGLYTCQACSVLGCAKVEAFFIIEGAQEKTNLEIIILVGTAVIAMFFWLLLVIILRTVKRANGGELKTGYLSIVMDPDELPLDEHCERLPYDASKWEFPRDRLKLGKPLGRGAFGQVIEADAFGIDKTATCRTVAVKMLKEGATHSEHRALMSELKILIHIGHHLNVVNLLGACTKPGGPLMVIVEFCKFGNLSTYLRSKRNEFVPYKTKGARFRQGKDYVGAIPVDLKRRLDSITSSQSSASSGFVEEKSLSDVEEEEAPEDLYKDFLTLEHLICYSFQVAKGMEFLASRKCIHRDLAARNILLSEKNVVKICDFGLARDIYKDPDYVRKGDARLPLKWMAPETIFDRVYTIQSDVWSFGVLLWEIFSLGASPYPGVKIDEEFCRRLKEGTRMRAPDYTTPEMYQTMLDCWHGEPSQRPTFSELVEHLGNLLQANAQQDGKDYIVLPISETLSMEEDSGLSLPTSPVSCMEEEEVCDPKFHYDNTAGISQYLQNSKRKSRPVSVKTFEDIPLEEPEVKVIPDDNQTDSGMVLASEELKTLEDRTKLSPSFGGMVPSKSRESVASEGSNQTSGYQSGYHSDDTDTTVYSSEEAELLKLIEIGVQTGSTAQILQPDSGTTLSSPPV
T2 sequence (P22607 23-806 V555M): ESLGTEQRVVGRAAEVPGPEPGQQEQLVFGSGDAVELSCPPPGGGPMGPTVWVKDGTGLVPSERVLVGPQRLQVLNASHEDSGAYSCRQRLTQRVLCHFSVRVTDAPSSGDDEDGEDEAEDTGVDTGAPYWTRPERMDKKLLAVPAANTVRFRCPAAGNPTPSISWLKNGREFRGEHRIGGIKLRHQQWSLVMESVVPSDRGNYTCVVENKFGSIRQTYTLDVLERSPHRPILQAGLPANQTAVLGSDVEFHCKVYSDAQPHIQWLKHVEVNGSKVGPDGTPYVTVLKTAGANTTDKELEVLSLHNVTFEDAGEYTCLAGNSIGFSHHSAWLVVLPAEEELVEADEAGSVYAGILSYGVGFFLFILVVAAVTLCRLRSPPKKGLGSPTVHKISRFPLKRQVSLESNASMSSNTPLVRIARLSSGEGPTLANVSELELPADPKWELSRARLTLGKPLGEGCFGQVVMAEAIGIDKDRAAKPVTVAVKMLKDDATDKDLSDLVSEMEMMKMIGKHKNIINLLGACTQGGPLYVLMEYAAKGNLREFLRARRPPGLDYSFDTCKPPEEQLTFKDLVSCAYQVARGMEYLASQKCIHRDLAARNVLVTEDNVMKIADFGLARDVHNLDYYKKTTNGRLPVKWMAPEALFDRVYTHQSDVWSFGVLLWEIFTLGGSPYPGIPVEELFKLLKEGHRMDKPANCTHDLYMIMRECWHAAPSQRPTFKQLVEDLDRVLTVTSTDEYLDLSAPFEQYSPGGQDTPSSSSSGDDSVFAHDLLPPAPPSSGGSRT

In general, IC50 refers to the concentration that gives 50% inhibition. As to `C[C@@H](Oc1ccc2[nH]nc(C(=O)Nc3cnn(C4CCC(O)CC4)c3)c2c1)c1c(Cl)cncc1Cl` (stereo partly drawn) [Compound 48, (R)-5-(1-(3,5-dichloropyridin-4-yl)ethoxy)-N-(1-(4-hydroxycyclohexyl)-1H-pyrazol-4-yl)-1H-indazole-3-carboxamide], the IC50 was determined as 115 nM at VEGFR2, 0.82 nM against FGFR3 V555M, 1 nM against FGFR1 V561M and 0.31 nM at FGFR2 V564F.

Consider `CC(Oc1ccc2[nH]nc(C(=O)Nc3ccc(CN4CCOCC4)cc3)c2c1)c1c(Cl)cncc1Cl` (centres unmarked) [Compound 30, 5-(1-(3,5-dichloropyridin-4-yl)ethoxy)-N-(4-(morpholinomethyl)phenyl)-1H-indazole-3-carboxamide], for which the 50% inhibitory concentration (IC50) against VEGFR2 is 729 nM; on FGFR3 V555M, 7.6 nM; at FGFR1 V561M, 36 nM; on FGFR2 V564F, 3.7 nM.

As for `C[C@@H](Oc1ccc2[nH]nc(C(=O)Nc3cnn(Cc4ccncc4)c3)c2c1)c1c(Cl)cncc1Cl` [Compound 50, (R)-5-(1-(3,5-dichloropyridin-4-yl)ethoxy)-N-(1-(pyridin-4-ylmethyl)-1H-pyrazol-4-yl)-1H-indazole-3-carboxamide], the IC50 was determined as 152 nM on VEGFR2, 0.64 nM against FGFR3 V555M, 1.7 nM on FGFR1 V561M and 0.37 nM on FGFR2 V564F.

Consider `C[C@@H](Oc1ccc2[nH]nc(C(=O)Nc3cnn(CC4CCCN4C)c3)c2c1)c1c(Cl)cncc1Cl` (some centres unmarked) [Compound 42], for which the IC50 amounted to 169 nM against VEGFR2, 0.44 nM against FGFR3 V555M, 1.1 nM on FGFR1 V561M and 0.43 nM on FGFR2 V564F.

Regarding `CC(Oc1ccc2[nH]nc(C(=O)Nc3cnn(CC(=O)N4CCCC4)c3)c2c1)c1c(Cl)cncc1Cl` (centres unmarked) [Compound 23, 5-(1-(3,5-dichloropyridin-4-yl)ethoxy)-N-(1-(2-oxo-2-(pyrrolidin-1-yl)ethyl)-1H-pyrazol-4-yl)-1H-indazole-3-carboxamide], the half-inhibitory concentration (IC50) came out at 114 nM on VEGFR2, 0.92 nM against FGFR3 V555M, 2.2 nM against FGFR1 V561M and 0.47 nM against FGFR2 V564F.

As for `CC(Oc1ccc2[nH]nc(C(=O)Nc3cnn(CC(=O)N(C)C)c3)c2c1)c1c(Cl)cncc1Cl` (centres unmarked) [Compound 24, 5-(1-(3,5-dichloropyridin-4-yl)ethoxy)-N-(1-(2-(dimethylamino)-2-oxoethyl)-1H-pyrazol-4-yl)-1H-indazole-3-carboxamide], the 50% inhibitory concentration (IC50) was 201 nM at VEGFR2, 1.3 nM against FGFR3 V555M, 3.3 nM at FGFR1 V561M and 0.43 nM on FGFR2 V564F.

In the case of `CCn1cc(NC(=O)c2n[nH]c3ccc(O[C@H](C)c4c(Cl)cncc4Cl)cc23)cn1` [Compound 34, (R)-5-(1-(3,5-dichloropyridin-4-yl)ethoxy)-N-(1-ethyl-1H-pyrazol-4-yl)-1H-indazole-3-carboxamide], the IC50 on VEGFR2 amounted to 61 nM; on FGFR3 V555M, 0.75 nM; against FGFR1 V561M, 0.24 nM; on FGFR2 V564F it was 0.06 nM.

Consider `CCN1CCC(Cn2cc(NC(=O)c3n[nH]c4ccc(O[C@H](C)c5c(Cl)cncc5Cl)cc34)cn2)CC1` [Compound 40, (R)-5-(1-(3,5-dichloropyridin-4-yl)ethoxy)-N-(1-((1-ethylpiperidin-4-yl)methyl)-1H-pyrazol-4-yl)-1H-indazole-3-carboxamide], for which the IC50 was found to be 33 nM against VEGFR2, 0.02 nM on FGFR3 V555M, 0.42 nM against FGFR1 V561M and 1.3 nM against FGFR2 V564F.

As to `C[C@@H](Oc1ccc2[nH]nc(C(=O)Nc3cnn(CC4CCCN(C)C4)c3)c2c1)c1c(Cl)cncc1Cl` (stereo partly drawn) [Compound 44, 5-((R)-1-(3,5-dichloropyridin-4-yl)ethoxy)-N-(1-((1-methylpiperidin-3-yl)methyl)-1H-pyrazol-4-yl)-1H-indazole-3-carboxamide], the IC50 turned out to be 145 nM at VEGFR2, 0.55 nM against FGFR3 V555M, 1.1 nM at FGFR1 V561M and 0.39 nM on FGFR2 V564F.

On to `CC(Oc1ccc2[nH]nc(C(=O)Nc3cnn(CCN4CCCC4)c3)c2c1)c1c(Cl)cncc1Cl` (centres unmarked) [Compound 25, 5-(1-(3,5-dichloropyridin-4-yl)ethoxy)-N-(1-(2-(pyrrolidin-1-yl)ethyl)-1H-pyrazol-4-yl)-1H-indazole-3-carboxamide], for which the IC50 was found to be 145 nM at VEGFR2, 0.21 nM against FGFR3 V555M, 3.6 nM on FGFR1 V561M and 0.26 nM against FGFR2 V564F.

On to `CC(Oc1ccc2[nH]nc(C(=O)Nc3cnn(C4CCC4)c3)c2c1)c1c(Cl)cncc1Cl` (centres unmarked) [Compound 27, N-(1-cyclobutyl-1H-pyrazol-4-yl)-5-(1-(3,5-dichloropyridin-4-yl)ethoxy)-1H-indazole-3-carboxamide], for which the IC50 was determined as 581 nM against VEGFR2, 7.3 nM against FGFR3 V555M, 20 nM at FGFR1 V561M and 2.1 nM against FGFR2 V564F.

As for `C[C@@H](Oc1ccc2[nH]nc(C(=O)Nc3cnn(CC4CCCCN4C)c3)c2c1)c1c(Cl)cncc1Cl` (stereo partly drawn) [Compound 45, 5-((R)-1-(3,5-dichloropyridin-4-yl)ethoxy)-N-(1-((1-methylpiperidin-2-yl)methyl)-1H-pyrazol-4-yl)-1H-indazole-3-carboxamide], the IC50 turned out to be 62 nM on VEGFR2, 0.14 nM at FGFR3 V555M, 0.34 nM against FGFR1 V561M and 0.1 nM on FGFR2 V564F.

In the case of `C[C@@H](Oc1ccc2[nH]nc(C(=O)Nc3cnn(CCN4CCOCC4)c3)c2c1)c1c(Cl)cncc1Cl` [Compound 37, (R)-5-(1-(3,5-dichloropyridin-4-yl)ethoxy)-N-(1-(2-morpholinoethyl)-1H-pyrazol-4-yl)-1H-indazole-3-carboxamide], the half-inhibitory concentration (IC50) against VEGFR2 worked out at 79 nM; on FGFR3 V555M it was 0.16 nM; against FGFR1 V561M, 1.6 nM; at FGFR2 V564F, 0.44 nM.

Consider `CCN1CCN(c2ccc(Nc3cc(N(C)C(=O)Nc4c(Cl)c(OC)cc(OC)c4Cl)ncn3)cc2)CC1` [Infigratinib, reference compound], for which the concentration for half-maximal inhibition (IC50) against VEGFR2 came out at 73 nM.

For the molecule `CC(Oc1ccc2[nH]nc(C(=O)Nc3cnn(C(C)C)c3)c2c1)c1c(Cl)cncc1Cl` (centres unmarked) [Compound 26, 5-(1-(3,5-dichloropyridin-4-yl)ethoxy)-N-(1-isopropyl-1H-pyrazol-4-yl)-1H-indazole-3-carboxainide], the IC50 against VEGFR2 stood at 255 nM; against FGFR3 V555M, 2.9 nM; at FGFR1 V561M it was 11.4 nM; against FGFR2 V564F it was 1.8 nM.

As to `CCN1CC(Cn2cc(NC(=O)c3n[nH]c4ccc(O[C@H](C)c5c(Cl)cncc5Cl)cc34)cn2)C1` [Compound 39, (R)-5-(1-(3,5-dichloropyridin-4-yl)ethoxy)-N-(1-((1-ethyl-azetidin-3-yl)methyl)-1H-pyrazol-4-yl)-1H-indazole-3-carboxamide], the 50% inhibitory concentration (IC50) came to 30 nM against VEGFR2, 0.05 nM against FGFR3 V555M, 0.35 nM on FGFR1 V561M and 0.05 nM against FGFR2 V564F.

Turning to `CC(Oc1ccc2[nH]nc(C(=O)Nc3cnn(CCCO)c3)c2c1)c1c(Cl)cncc1Cl` (centres unmarked) [Compound 29, 5-(1-(3,5-dichloropyridin-4-yl)ethoxy)-N-(1-(3-hydroxypropyl)-1H-pyrazol-4-yl)-1H-indazole-3-carboxamide], the half-maximal inhibitory concentration (IC50) worked out at 144 nM against VEGFR2, 0.25 nM against FGFR3 V555M, 2.3 nM against FGFR1 V561M and 0.93 nM at FGFR2 V564F.
